Assay results: the CheMixHub viscosity set

Assay: xn = mol fraction of the nth substance listed

COC(C)=O + CCCO
viscosity [mPa·s]
Conditions | 298.15 K | 313.15 K
101 kPa, x1 = 0.0464 | 1.587 | 1.153
101 kPa, x1 = 0.0999 | 1.295 | 0.965
101 kPa, x1 = 0.1992 | 1.001 | 0.769
101 kPa, x1 = 0.3035 | 0.794 | 0.626
101 kPa, x1 = 0.4028 | 0.654 | 0.529
101 kPa, x1 = 0.5088 | 0.555 | 0.458
101 kPa, x1 = 0.5545 | 0.52 | 0.433
101 kPa, x1 = 0.6022 | 0.49 | 0.411
101 kPa, x1 = 0.7037 | 0.439 | 0.375
101 kPa, x1 = 0.7973 | 0.401 | 0.346
101 kPa, x1 = 0.8988 | 0.39 | 0.341
101 kPa, x1 = 0.9458 | 0.379 | 0.332
101 kPa, x2 = 0.1056 | 0.375 | –
101 kPa, x2 = 0.1987 | 0.399 | –
101 kPa, x2 = 0.298 | 0.432 | –
101 kPa, x2 = 0.3999 | 0.483 | –
101 kPa, x2 = 0.5012 | 0.55 | –
101 kPa, x2 = 0.5963 | 0.644 | –
101 kPa, x2 = 0.6991 | 0.793 | –
101 kPa, x2 = 0.7989 | 1.014 | –
101 kPa, x2 = 0.8845 | 1.306 | –
101.33 kPa, x1 = 0.0504 | 1.667 | –
101.33 kPa, x1 = 0.1935 | 1.074 | –
101.33 kPa, x1 = 0.3023 | 0.817 | –
101.33 kPa, x1 = 0.4167 | 0.654 | –
101.33 kPa, x1 = 0.5497 | 0.544 | –
101.33 kPa, x1 = 0.6021 | 0.509 | –
101.33 kPa, x1 = 0.6703 | 0.48 | –
101.33 kPa, x1 = 0.7809 | 0.439 | –
101.33 kPa, x1 = 0.8648 | 0.409 | –

CCC(C)=O + CCCCCC
298 K, 101.33 kPa
Conditions | viscosity [mPa·s]
x1 = 0.055 | 0.3018
x1 = 0.2337 | 0.3032
x1 = 0.2985 | 0.3054
x1 = 0.4168 | 0.3122
x1 = 0.5063 | 0.3211
x1 = 0.6043 | 0.3277
x1 = 0.6943 | 0.3371
x1 = 0.8004 | 0.3496
x1 = 0.9053 | 0.3647

CCC(C)=O + CCC(C)O
viscosity [mPa·s], 101.3 kPa
Conditions | x2 = 0.1018 | x2 = 0.1991 | x2 = 0.2984 | x2 = 0.397 | x2 = 0.4966 | x2 = 0.5968 | x2 = 0.6985 | x2 = 0.8007 | x2 = 0.9003
298.15 K | 0.423 | 0.461 | 0.511 | 0.578 | – | 0.804 | 1.005 | 1.332 | 1.896
308.15 K | 0.38 | 0.415 | 0.452 | 0.505 | 0.576 | 0.677 | 0.824 | – | 1.426
318.15 K | 0.344 | 0.369 | 0.402 | 0.445 | 0.501 | 0.578 | 0.686 | 0.849 | 1.099

CC(=O)OC(C)C(C)C (configuration not stated) + C=CC#N
viscosity [mPa·s], 101.33 kPa
Conditions | x2 = 0.096 | x2 = 0.1903 | x2 = 0.287 | x2 = 0.3796 | x2 = 0.4771 | x2 = 0.582 | x2 = 0.6783 | x2 = 0.7861 | x2 = 0.894
298.15 K | 0.761 | 0.726 | 0.684 | 0.641 | 0.595 | 0.54 | 0.493 | 0.44 | 0.388
303.15 K | 0.71 | 0.681 | 0.641 | 0.601 | 0.558 | 0.51 | 0.465 | 0.417 | 0.37
308.15 K | 0.663 | 0.639 | 0.604 | 0.565 | 0.526 | 0.48 | 0.44 | 0.396 | 0.353

CCOC(=O)C(C)Br (configuration not stated) + CCCCCC
303.15 K, 101 kPa
Conditions | viscosity [mPa·s]
x1 = 0.1996 | 0.372
x1 = 0.4039 | 0.5117
x1 = 0.5022 | 0.5973
x1 = 0.5991 | 0.7048
x1 = 0.7961 | 1.012

COC(C)=O + CCCCCC
Conditions | viscosity [mPa·s]
298.15 K, 101 kPa, x1 = 0.0412 | 0.29
298.15 K, 101 kPa, x1 = 0.1497 | 0.289
298.15 K, 101 kPa, x1 = 0.2521 | 0.291
298.15 K, 101 kPa, x1 = 0.3502 | 0.295
298.15 K, 101 kPa, x1 = 0.4406 | 0.3
298.15 K, 101 kPa, x1 = 0.4839 | 0.303
298.15 K, 101 kPa, x1 = 0.5505 | 0.309
298.15 K, 101 kPa, x1 = 0.6499 | 0.32
298.15 K, 101 kPa, x1 = 0.7508 | 0.334
298.15 K, 101 kPa, x1 = 0.8488 | 0.351
298.15 K, 101 kPa, x1 = 0.941 | 0.37
298.15 K, 101.3 kPa, x1 = 0.1056 | 0.2969
298.15 K, 101.3 kPa, x1 = 0.2943 | 0.2941
298.15 K, 101.3 kPa, x1 = 0.4514 | 0.2996
298.15 K, 101.3 kPa, x1 = 0.5616 | 0.3071
298.15 K, 101.3 kPa, x1 = 0.6895 | 0.3189
298.15 K, 101.3 kPa, x1 = 0.7175 | 0.3223
298.15 K, 101.3 kPa, x1 = 0.8224 | 0.342
298.15 K, 101.3 kPa, x1 = 0.9171 | 0.365
303.15 K, 101.3 kPa, x1 = 0.1069 | 0.276
303.15 K, 101.3 kPa, x1 = 0.204 | 0.2755
303.15 K, 101.3 kPa, x1 = 0.306 | 0.2772
303.15 K, 101.3 kPa, x1 = 0.406 | 0.2809
303.15 K, 101.3 kPa, x1 = 0.4998 | 0.2857
303.15 K, 101.3 kPa, x1 = 0.602 | 0.2937
303.15 K, 101.3 kPa, x1 = 0.6984 | 0.3048
303.15 K, 101.3 kPa, x1 = 0.8014 | 0.3165
303.15 K, 101.3 kPa, x1 = 0.8998 | 0.3298
308.15 K, 101 kPa, x1 = 0.0412 | 0.272
308.15 K, 101 kPa, x1 = 0.1497 | 0.271
308.15 K, 101 kPa, x1 = 0.2521 | 0.273
308.15 K, 101 kPa, x1 = 0.3502 | 0.276
308.15 K, 101 kPa, x1 = 0.4406 | 0.28
308.15 K, 101 kPa, x1 = 0.4839 | 0.283
308.15 K, 101 kPa, x1 = 0.5505 | 0.288
308.15 K, 101 kPa, x1 = 0.6499 | 0.297
308.15 K, 101 kPa, x1 = 0.7508 | 0.309
308.15 K, 101 kPa, x1 = 0.8488 | 0.323
308.15 K, 101 kPa, x1 = 0.941 | 0.339

CCC(C)=O + CC(C)=O
viscosity [mPa·s], 101 kPa
Conditions | x1 = 0.2 | x1 = 0.4 | x1 = 0.6 | x1 = 0.8
293.15 K | 0.334 | 0.35 | 0.365 | 0.381
313.15 K | 0.278 | 0.29 | 0.302 | 0.314

COCCOC + Nc1ccccc1
298.15 K, 101 kPa
Conditions | viscosity [mPa·s]
x1 = 0.103 | 2.958
x1 = 0.2053 | 2.326
x1 = 0.3069 | 1.85
x1 = 0.4079 | 1.488
x1 = 0.5082 | 1.194
x1 = 0.6079 | 0.96
x1 = 0.7068 | 0.778
x1 = 0.8052 | 0.625
x1 = 0.9029 | 0.505

CCCCCCOC(C)=O + CCCCCCO
viscosity [mPa·s], 101.33 kPa
Conditions | x1 = 0.0998 | x1 = 0.2013 | x1 = 0.3012 | x1 = 0.4056 | x1 = 0.4937 | x1 = 0.6002 | x1 = 0.7021 | x1 = 0.8045 | x1 = 0.9018
293.15 K | 4.012 | 3.281 | 2.721 | 2.266 | 1.964 | 1.677 | 1.464 | 1.299 | 1.176
303.15 K | 3.073 | 2.502 | 2.065 | 1.71 | 1.474 | 1.249 | 1.083 | 0.954 | 0.858
313.15 K | 2.301 | 1.899 | 1.584 | 1.332 | 1.164 | 1.005 | 0.887 | 0.795 | 0.726

COc1ccccc1N + CC(=O)O
viscosity [mPa·s], 100 kPa
Conditions | x1 = 0.1011 | x1 = 0.1745 | x1 = 0.2562 | x1 = 0.3454 | x1 = 0.4852 | x1 = 0.5894 | x1 = 0.6674 | x1 = 0.7458 | x1 = 0.8979
303.15 K | 1.442 | 1.732 | 2.053 | 2.402 | 2.947 | 3.351 | 3.652 | 3.953 | 4.535
308.15 K | 1.349 | 1.618 | 1.916 | 2.24 | 2.745 | 3.118 | 3.397 | 3.676 | 4.214
313.15 K | 1.257 | 1.505 | 1.78 | 2.078 | 2.541 | 2.885 | 3.141 | 3.397 | 3.891
318.15 K | 1.166 | 1.394 | 1.646 | 1.92 | 2.346 | 2.662 | 2.897 | 3.132 | 3.584
